Results as given in the supplement of paper PMC9005190.

Legend:
LPA1 = LPA1 (UniProt Q92633); assay: pEC50 of agonist-induced pathway activation (ebBRET)
GPR39 [1] = biological target: T1, GPR39 (UniProt O43194); assay: as above
T1 sequence (whole entry): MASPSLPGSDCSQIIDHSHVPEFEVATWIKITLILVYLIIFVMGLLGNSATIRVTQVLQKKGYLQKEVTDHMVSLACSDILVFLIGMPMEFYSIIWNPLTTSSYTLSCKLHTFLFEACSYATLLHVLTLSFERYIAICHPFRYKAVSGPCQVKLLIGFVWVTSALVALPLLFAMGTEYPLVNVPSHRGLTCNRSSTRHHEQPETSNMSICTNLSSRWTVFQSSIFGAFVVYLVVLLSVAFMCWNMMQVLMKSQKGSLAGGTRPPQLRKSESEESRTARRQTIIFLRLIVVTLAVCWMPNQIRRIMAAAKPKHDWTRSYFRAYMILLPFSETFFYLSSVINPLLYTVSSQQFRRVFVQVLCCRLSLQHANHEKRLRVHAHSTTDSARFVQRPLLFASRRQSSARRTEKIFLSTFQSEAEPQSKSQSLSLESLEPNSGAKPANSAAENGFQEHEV

GPR39 [2] = biological target: T1, GPR39; assay: Emax (maximal agonist-induced change in ebBRET relative to vehicle) (% of vehicle response (amplitude of change)); higher = larger response (for Gs, larger decrease in membrane ebBRET, i.e. stronger Gs activation)
FFA4 [3] = assay: pEC50 of agonist-induced pathway activation (ebBRET)
FFA4 [4] = assay: Emax (maximal agonist-induced change in ebBRET relative to vehicle) (% of vehicle response (amplitude of change)); higher = larger response (for Gs, larger decrease in membrane ebBRET, i.e. stronger Gs activation)
PAR1 [5] = biological target: T2, PAR1 (UniProt P25116); assay: pEC50 of agonist-induced pathway activation (ebBRET)
T2 sequence (whole entry): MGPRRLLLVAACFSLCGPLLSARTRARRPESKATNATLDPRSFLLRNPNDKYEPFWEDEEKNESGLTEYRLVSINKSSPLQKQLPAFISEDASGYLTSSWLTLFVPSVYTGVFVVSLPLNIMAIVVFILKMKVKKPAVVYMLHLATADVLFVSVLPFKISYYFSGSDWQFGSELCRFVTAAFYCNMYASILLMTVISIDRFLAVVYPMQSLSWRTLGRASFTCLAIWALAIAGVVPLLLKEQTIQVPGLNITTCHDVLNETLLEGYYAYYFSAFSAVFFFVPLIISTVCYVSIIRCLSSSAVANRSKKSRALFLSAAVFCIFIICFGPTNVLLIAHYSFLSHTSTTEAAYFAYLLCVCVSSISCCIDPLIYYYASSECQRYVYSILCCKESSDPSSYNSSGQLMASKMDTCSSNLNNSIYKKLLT

PAR1 [6] = biological target: T2, PAR1; assay: Emax (maximal agonist-induced change in ebBRET relative to vehicle) (% of vehicle response (amplitude of change)); higher = larger response (for Gs, larger decrease in membrane ebBRET, i.e. stronger Gs activation)
PAR2 [7] = biological target: PAR2 (UniProt P55085); assay: pEC50 of agonist-induced pathway activation (ebBRET)
PAR2, sequence (P55085 whole entry): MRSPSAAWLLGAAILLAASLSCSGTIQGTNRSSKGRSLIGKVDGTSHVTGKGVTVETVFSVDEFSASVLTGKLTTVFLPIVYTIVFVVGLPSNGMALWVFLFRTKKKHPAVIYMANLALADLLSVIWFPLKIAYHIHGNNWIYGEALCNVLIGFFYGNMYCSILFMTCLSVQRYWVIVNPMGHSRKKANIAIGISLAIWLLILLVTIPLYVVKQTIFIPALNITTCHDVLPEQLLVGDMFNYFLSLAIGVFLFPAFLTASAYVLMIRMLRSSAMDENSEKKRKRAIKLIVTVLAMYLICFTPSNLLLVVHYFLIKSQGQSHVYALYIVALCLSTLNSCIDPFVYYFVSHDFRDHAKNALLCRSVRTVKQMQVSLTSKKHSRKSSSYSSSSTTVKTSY

PAR2 [8] = biological target: PAR2 (UniProt P55085); assay: Emax (maximal agonist-induced change in ebBRET relative to vehicle) (% of vehicle response (amplitude of change)); higher = larger response (for Gs, larger decrease in membrane ebBRET, i.e. stronger Gs activation)
[9] = pathway (G protein / arrestin sensor): G11
[10] = pathway (G protein / arrestin sensor): G13
[11] = pathway (G protein / arrestin sensor): G14
[12] = pathway (G protein / arrestin sensor): G15
[13] = pathway (G protein / arrestin sensor): Gi1
[14] = pathway (G protein / arrestin sensor): GoA
[15] = pathway (G protein / arrestin sensor): Gq
[16] = pathway (G protein / arrestin sensor): βarr1/GRK2
[17] = pathway (G protein / arrestin sensor): βarr2
[18] = pathway (G protein / arrestin sensor): βarr2/GRK2
[19] = pathway (G protein / arrestin sensor): Gi2
[20] = pathway (G protein / arrestin sensor): GoB
[21] = pathway (G protein / arrestin sensor): Gz
[22] = pathway (G protein / arrestin sensor): G12

LPA1, sequence (Q92633 whole entry): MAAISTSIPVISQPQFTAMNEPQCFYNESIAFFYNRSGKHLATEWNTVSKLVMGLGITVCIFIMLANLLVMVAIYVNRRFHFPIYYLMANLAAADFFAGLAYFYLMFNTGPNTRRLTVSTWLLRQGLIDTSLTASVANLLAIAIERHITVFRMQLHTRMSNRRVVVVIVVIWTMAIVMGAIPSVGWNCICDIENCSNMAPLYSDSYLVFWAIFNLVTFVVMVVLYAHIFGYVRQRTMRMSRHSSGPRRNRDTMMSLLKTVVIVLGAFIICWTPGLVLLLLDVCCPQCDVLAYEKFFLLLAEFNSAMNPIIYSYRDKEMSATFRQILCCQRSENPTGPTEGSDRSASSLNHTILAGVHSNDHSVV

## CCCCCCCC/C=C\CCCCCCCC(=O)OCC(O)COP(=O)(O)O (stereo not given) [O-LPA]
LPA1; [9]
  pEC50: 6.92
LPA1; [10]
  pEC50: 8.35
LPA1; [11]
  pEC50: 5.63
LPA1; [12]
  pEC50: 6.31
LPA1; [13]
  pEC50: 9.2
LPA1; [14]
  pEC50: 8.89
LPA1; [15]
  pEC50: 7.51
LPA1; [16]
  pEC50: 7.53
LPA1; [17]
  pEC50: 6.58
LPA1; [18]
  pEC50: 7.46

## [Cl][Zn][Cl] [Zn2+]
GPR39 [1]; [9]
  pEC50: 4.21
GPR39 [1]; [10]
  pEC50: 5.39
GPR39 [1]; [11]
  pEC50: 4.25
GPR39 [1]; [12]
  pEC50: 4.38
GPR39 [1]; [13]
  pEC50: 4.1
GPR39 [1]; [19]
  pEC50: 4.19
GPR39 [1]; [14]
  pEC50: 4.16
GPR39 [1]; [20]
  pEC50: 4.25
GPR39 [1]; [15]
  pEC50: 4.48
GPR39 [1]; [17]
  pEC50: 4.03
GPR39 [1]; [18]
  pEC50: 4.02
GPR39 [2]; [9]
  Emax: 136
GPR39 [2]; [10]
  Emax: 120
GPR39 [2]; [11]
  Emax: 210
GPR39 [2]; [12]
  Emax: 37.6
GPR39 [2]; [13]
  Emax: 254
GPR39 [2]; [19]
  Emax: 80.9
GPR39 [2]; [14]
  Emax: 137
GPR39 [2]; [20]
  Emax: 197
GPR39 [2]; [15]
  Emax: 113
GPR39 [2]; [17]
  Emax: 61.7
GPR39 [2]; [18]
  Emax: 41.4

## CC/C=C\C/C=C\C/C=C\CCCCCCCC(=O)O [α-linolenic acid]
FFA4 [3]; [9]
  pEC50: 5.08
FFA4 [3]; [10]
  pEC50: 4.8
FFA4 [3]; [11]
  pEC50: 5.5
FFA4 [3]; [12]
  pEC50: 5.53
FFA4 [3]; [13]
  pEC50: 6.12
FFA4 [3]; [19]
  pEC50: 6.31
FFA4 [3]; [14]
  pEC50: 5.6
FFA4 [3]; [20]
  pEC50: 6.27
FFA4 [3]; [15]
  pEC50: 5.1
FFA4 [3]; [16]
  pEC50: 4.7
FFA4 [3]; [17]
  pEC50: 4.94
FFA4 [3]; [18]
  pEC50: 4.87
FFA4 [4]; [9]
  Emax: 288
FFA4 [4]; [10]
  Emax: 120
FFA4 [4]; [11]
  Emax: 297
FFA4 [4]; [12]
  Emax: 476
FFA4 [4]; [13]
  Emax: 35
FFA4 [4]; [19]
  Emax: 23.3
FFA4 [4]; [14]
  Emax: 64
FFA4 [4]; [20]
  Emax: 30.2
FFA4 [4]; [15]
  Emax: 198
FFA4 [4]; [16]
  Emax: 1090
FFA4 [4]; [17]
  Emax: 993
FFA4 [4]; [18]
  Emax: 999

## CC(C)C[C@H](NC(=O)[C@H](CC(C)C)NC(=O)[C@H](Cc1ccccc1)NC(=O)[C@@H](N)[C@@H](C)O)C(=O)N[C@@H](CCCN=C(N)N)C(N)=O [TFLLR-NH2]
PAR1 [5]; [9]
  pEC50: 6.55
PAR1 [5]; [10]
  pEC50: 7.11
PAR1 [5]; [11]
  pEC50: 5.74
PAR1 [5]; [12]
  pEC50: 6.22
PAR1 [5]; [13]
  pEC50: 4
PAR1 [5]; [19]
  pEC50: 5.04
PAR1 [5]; [14]
  pEC50: 5.89
PAR1 [5]; [20]
  pEC50: 6
PAR1 [5]; [15]
  pEC50: 6.72
PAR1 [5]; [21]
  pEC50: 6.41
PAR1 [5]; [16]
  pEC50: 5.08
PAR1 [5]; [17]
  pEC50: 5.12
PAR1 [5]; [18]
  pEC50: 5.18
PAR1 [6]; [9]
  Emax: 382
PAR1 [6]; [10]
  Emax: 193
PAR1 [6]; [11]
  Emax: 405
PAR1 [6]; [12]
  Emax: 332
PAR1 [6]; [13]
  Emax: 574
PAR1 [6]; [19]
  Emax: 177
PAR1 [6]; [14]
  Emax: 73
PAR1 [6]; [20]
  Emax: 221
PAR1 [6]; [15]
  Emax: 238
PAR1 [6]; [21]
  Emax: 144
PAR1 [6]; [16]
  Emax: 446
PAR1 [6]; [17]
  Emax: 439
PAR1 [6]; [18]
  Emax: 470

## CC[C@H](C)[C@H](NC(=O)[C@H](CC(C)C)NC(=O)[C@@H](N)CO)C(=O)NCC(=O)N[C@@H](CCCCN)C(=O)N[C@H](C(N)=O)C(C)C [SLIGKV-NH2]
PAR2 [7]; [9]
  pEC50: 5.96
PAR2 [7]; [22]
  pEC50: 7.79
PAR2 [7]; [10]
  pEC50: 6.87
PAR2 [7]; [11]
  pEC50: 5.46
PAR2 [7]; [12]
  pEC50: 5.81
PAR2 [7]; [13]
  pEC50: 5.32
PAR2 [7]; [19]
  pEC50: 5.65
PAR2 [7]; [14]
  pEC50: 5.85
PAR2 [7]; [20]
  pEC50: 6.32
PAR2 [7]; [15]
  pEC50: 5.18
PAR2 [7]; [21]
  pEC50: 6.23
PAR2 [7]; [16]
  pEC50: 4.65
PAR2 [7]; [17]
  pEC50: 4.63
PAR2 [7]; [18]
  pEC50: 4.75
PAR2 [8]; [9]
  Emax: 483
PAR2 [8]; [22]
  Emax: 41.5
PAR2 [8]; [10]
  Emax: 235
PAR2 [8]; [11]
  Emax: 419
PAR2 [8]; [12]
  Emax: 498
PAR2 [8]; [13]
  Emax: 621
PAR2 [8]; [19]
  Emax: 326
PAR2 [8]; [14]
  Emax: 217
PAR2 [8]; [20]
  Emax: 320
PAR2 [8]; [15]
  Emax: 304
PAR2 [8]; [21]
  Emax: 188
PAR2 [8]; [16]
  Emax: 861
PAR2 [8]; [17]
  Emax: 766
PAR2 [8]; [18]
  Emax: 489
